Values quoted from earlier work as cited in patent US20180344690A1, “Methods and Formulation for Enhancing Response to Radiotherapy” (The Board of Trustees of the Leland Stanford Junior …, priority 2017, published 2018).

Key:
multiple myeloma (MM) = conditions: cited from earlier work
APL = conditions: untreated control 18 days; cytarabine vs cytarabine+Plerixafor p<0.0006; cited from earlier work

Question: Which results are given for `CC(C)C[C@H](NC(=O)[C@H](Cc1ccccc1)NC(=O)c1cnccn1)B(O)O` [bortezomib]?
Answer: tumor progression (multiple myeloma (MM); bortezomib vs control P=0.041, combination vs control P=0.001, vs bortezomib alone P=0.021): reduction in tumor progression compared with control; tumor involvement in BM, liver and spleen (multiple myeloma (MM); mouse, in vivo): significant decrease of tumor cells

Question: For `Nc1ccn([C@@H]2O[C@H](CO)[C@@H](O)[C@@H]2O)c(=O)n1` [cytarabine], which median overall survival (APL) is on record?
Answer: 23 days
